Results taken from US12558397B2, “Composition for prevention, amelioration, or treatment of urination-related diseases comprising cephalotocin” (KOREA RESEARCH INSTITUTE OF CHEMICAL TECHNOLOGY, priority 2020, dated 2026).

Columns and labels:
Assay type in all cases: cell-based
[1] = biological target: T1, human vasopressin V1A receptor (Homo sapiens, UniProt P37288); assay: Vasopressin receptor V1AR activity/inhibitory effect, intracellular calcium by calcium dye fluorescence imaging; conditions: CHO cells overexpressing human V1A receptor, FIGS. 3 and 4
T1 construct: expressed in transfected cells; host or cells: CHO (Chinese hamster ovary) cells
Procedure: (§1) Recombinant human vasopressin V1A receptor-overexpressing Chinese hamster ovary cells (cell line name: CHO) were cultured and treated with cephalotocin at different concentrations at room temperature, and the change in intracellular calcium concentration induced by cephalotocin-vasopressin V1A receptor binding was measured by the calcium dye fluorescence imaging method.
To confirm the receptor inhibitory effect, the response to increasing the intracellular calcium concentration that vasopressin 10 nM may cause was taken as 100% standard, and the relative magnitude of the response induced when treated with vasopressin 10 nM and cephalotocin simultaneously was measured.
(§2) . The results confirming the regulatory effect on the receptors OXTR, V1AR, V1BR and V2R by Octopus vulgaris octopressin are shown in FIGS. 3 and 4, respectively.

[2] = biological target: T2, human vasopressin V1B receptor (Homo sapiens, UniProt P47901); assay: Vasopressin receptor V1BR activity/inhibitory effect, intracellular calcium by calcium dye fluorescence imaging; conditions: RBL cells overexpressing human V1B receptor, FIGS. 3 and 4
T2 construct: expressed in transfected cells; host or cells: RBL (basophilic leukemia) cells
T2 sequence (P47901 1-424): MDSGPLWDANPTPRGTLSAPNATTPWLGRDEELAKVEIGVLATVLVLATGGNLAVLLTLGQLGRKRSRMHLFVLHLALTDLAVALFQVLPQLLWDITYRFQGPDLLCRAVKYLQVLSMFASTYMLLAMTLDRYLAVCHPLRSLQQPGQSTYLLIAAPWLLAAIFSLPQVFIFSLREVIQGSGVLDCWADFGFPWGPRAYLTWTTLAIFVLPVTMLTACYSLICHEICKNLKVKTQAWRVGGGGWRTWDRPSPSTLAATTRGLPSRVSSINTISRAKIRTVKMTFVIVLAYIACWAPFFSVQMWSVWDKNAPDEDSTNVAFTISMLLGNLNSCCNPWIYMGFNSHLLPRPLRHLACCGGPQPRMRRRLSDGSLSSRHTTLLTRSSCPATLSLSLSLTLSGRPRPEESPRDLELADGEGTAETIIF
Procedure: as §1, with “V1B” for “V1A”, “[…] basophilic leukemia” for “Chinese hamster ovary cells”, “RBL) was” for “CHO) were”
The results confirming the regulatory effect on the receptors OXTR, V1AR, V1BR and V2R by Octopus vulgaris octopressin are shown in FIGS. 3 and 4, respectively.

[3] = biological target: T3, human oxytocin receptor (Homo sapiens, UniProt P30559); assay: Oxytocin receptor OXTR activity/inhibitory effect, intracellular calcium by calcium dye fluorescence imaging; conditions: ECSV304 cells overexpressing human oxytocin receptor, FIGS. 3 and 4
T3 construct: expressed in transfected cells; host or cells: recombinant human epithelial cells, cell line ECSV304 as printed
T3 sequence (P30559 1-389): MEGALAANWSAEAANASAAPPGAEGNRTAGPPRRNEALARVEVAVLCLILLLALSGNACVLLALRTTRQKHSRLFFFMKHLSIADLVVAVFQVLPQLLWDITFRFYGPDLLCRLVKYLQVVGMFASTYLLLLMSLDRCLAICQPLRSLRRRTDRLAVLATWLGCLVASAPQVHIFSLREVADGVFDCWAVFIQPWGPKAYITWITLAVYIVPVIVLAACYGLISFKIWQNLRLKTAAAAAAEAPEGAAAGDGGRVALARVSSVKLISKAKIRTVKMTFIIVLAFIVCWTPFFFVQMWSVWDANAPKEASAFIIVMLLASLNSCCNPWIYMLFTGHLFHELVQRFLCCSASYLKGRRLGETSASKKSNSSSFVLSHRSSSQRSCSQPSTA
Procedure: Recombinant human epithelial cells overexpressing human oxytocin receptor (Name of cell line: ECSV304) were cultured and treated with cephalotocin at different concentrations at room temperature. The change in intracellular calcium concentration induced by cephalotocin-oxytocin receptor binding was measured by calcium dye fluorescence imaging.
To confirm the receptor activation effect, the response to increasing the intracellular calcium concentration that oxytocin 1 μM may cause was taken as 100%, and the relative magnitude of the response induced when treated with cephalotocin alone without oxytocin was measured
To confirm the receptor inhibitory effect, the response to increasing the intracellular calcium concentration that oxytocin 30 nM may cause was taken as 100% standard, and the relative magnitude of the response induced when treated with oxytocin 30 nM and cephalotocin simultaneously was measured.
as §2

[4] = biological target: T4, human vasopressin V2 receptor (Homo sapiens, UniProt P30518); assay: Vasopressin receptor V2R activity/inhibitory effect, intracellular cAMP by HTRF; conditions: CHO cells overexpressing human V2 receptor, FIGS. 3 and 4
T4 construct: expressed in transfected cells; host or cells: CHO (Chinese hamster ovary) cells
Procedure: Recombinant human vasopressin V2 receptor-overexpressing Chinese hamster ovary cells (cell line name: CHO) were cultured and treated with cephalotocin at different concentrations at room temperature for 30 minutes, and intracellular cAMP concentration accumulated for 30 minutes by cephalotocin-vasopressin V2 receptor binding was measured by the HTRF fluorescence imaging method. […]. To confirm the receptor inhibitory effect, the response to increasing the intracellular cAMP concentration that vasopressin 0.03 nM may cause for 30 minutes was taken as 100% standard, and the relative magnitude of the response induced when treated with vasopressin 0.03 nM and cephalotocin simultaneously was measured.
as §2

T1 sequence (P37288 whole entry): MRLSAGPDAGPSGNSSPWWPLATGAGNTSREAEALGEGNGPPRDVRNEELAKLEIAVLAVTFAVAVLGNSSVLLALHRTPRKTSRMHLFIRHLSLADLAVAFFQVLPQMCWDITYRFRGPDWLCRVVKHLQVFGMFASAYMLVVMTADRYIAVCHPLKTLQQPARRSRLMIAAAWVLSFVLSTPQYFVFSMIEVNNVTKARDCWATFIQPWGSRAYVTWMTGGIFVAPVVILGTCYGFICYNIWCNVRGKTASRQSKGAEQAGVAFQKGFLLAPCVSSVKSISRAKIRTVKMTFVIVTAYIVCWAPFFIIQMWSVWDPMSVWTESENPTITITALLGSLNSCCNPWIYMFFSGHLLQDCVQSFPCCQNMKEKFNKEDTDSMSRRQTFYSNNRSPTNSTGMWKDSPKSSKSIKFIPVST

octopressin
does not regulate: Regulation (activation/inhibition) of V1AR [1] | Regulation (activation/inhibition) of V1BR [2] | Regulation (activation/inhibition) of OXTR [3] | Regulation (activation/inhibition) of V2R [4]
